Assay results reported in patent US11918582B2 (RAPT Therapeutics, Inc., priority 2021, dated 2024).

Molecular target: T1, human HPK1 (MAP4K1) (Homo sapiens, UniProt Q92918)
T1 construct: Recombinant human HPK1 kinase domain was obtained from ThermoFisher (Cat. #PV6357) and SignalChem (Cat. #M23-11G); purchased ThermoFisher; SignalChem PV6357; M23-11G
T1 sequence (Q92918 17-274 limits assumed): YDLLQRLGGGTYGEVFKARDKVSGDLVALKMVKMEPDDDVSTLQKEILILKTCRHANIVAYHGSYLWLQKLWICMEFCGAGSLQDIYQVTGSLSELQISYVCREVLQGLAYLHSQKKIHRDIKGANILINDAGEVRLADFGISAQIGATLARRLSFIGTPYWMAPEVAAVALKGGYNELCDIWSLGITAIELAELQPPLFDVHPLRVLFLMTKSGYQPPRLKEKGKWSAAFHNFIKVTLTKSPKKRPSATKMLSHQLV
Assay: Biochemical assay for activity against HPK1 (ADP-Glo, MBP substrate)
Conditions: recombinant human HPK1 kinase domain, 1 nM enzyme, ADP-Glo luminescence
Summary of the method: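 IC50s come from ADP-Glo luminescence after a 2 h room-temperature reaction phosphorylating MBP in the presence of ATP. Compound was first preincubated 15 min with 1 nM HPK1 kinase domain, human recombinant. Buffer: 50 mM HEPES pH 7.5, 150 mM NaCl, 3 mM TCEP, 10 mM MgCl2, 0.005% Tween-20, 0.01% BSA.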

SMILES | IC50 [nM]
COc1cc2c(cc1Nc1ncc3c(C)nn([C@H]4CC[C@@H](O)CC4)c3n1)CN(C)CC2 [Example 45, (cis)-4-(6-((6-methoxy-2-methyl-1,2,3,4-tetrahydroisoquinolin-7-yl)amino)-3-methyl-1H-pyrazolo[3,4-d]pyrimidin-1-yl)cyclohexan-1-ol] | < 100
CCOC(=O)CCCn1ncc2cnc(Nc3ccc4c(c3)CN(C)CC4)nc21 [Example 8, Ethyl 4-(6-((2-methyl-1,2,3,4-tetrahydroisoquinolin-7-yl)amino)-1H-pyrazolo[3,4-d]pyrimidin-1-yl)butanoate] | < 100
COc1cc2c(cc1Nc1ncc3cnn([C@H]4CC[C@H](O)CC4)c3n1)CN(CC(F)F)CC2 [Example 154, trans-4-(6-((2-(2,2-difluoroethyl)-6-methoxy-1,2,3,4-tetrahydroisoquinolin-7-yl)amino)-1H-pyrazolo[3,4-d]pyrimidin-1-yl)cyclohexan-1-ol] | < 100

Results, then the compound that gave them:

IC50 [nM] | SMILES
< 100 | COc1nc2c(cc1Nc1ncc3cnn([C@H]4CC[C@H](CO)CC4)c3n1)CN(C)CC2 [Example 170]
< 100 | COc1cc2c(cc1Nc1ncc3cnn(C[C@@H]4CCC(C)(C)N4C(C)=O)c3n1)CN(C)CC2 [Example 176, 1-[(5S)-5-[[6-[(6-methoxy-2-methyl-3,4-dihydro-1H-isoquinolin-7-yl)amino]pyrazolo[3,4-d]pyrimidin-1-yl]ymethyl]-2,2-dimethyl-pyrrolidin-1-yl]ethenone]
